For 2 compounds, MIC results are on record in patent US7365056B2, “Substituted 9a-N-(N′-(sulfonyl)phenylcarbamoyl)derivatives of 9-deoxo-9-dihydro-9a-aza-9a-homoerithomycin A and 5-0-desosaminyl-9-deoxo-9-dihydro-9-a-aza-9a-homoerithronolide A” (GlaxoSmithKline istrazivacki centar Zagreb d.o, priority 2002, dated 2008).

The structures appear in SMILES notation. ≈ marks a conversion by molar mass, not a printed value.

The experiment relates to S. pyogenes iMLS resistante strain. As to the kind of experiment: MIC by broth dilution (NCCLS M7-A2), S. pyogenes iMLS resistant strain. To be noted: MIC = concentration showing 90% growth inhibition, tested range 64 to 0.125 μg/ml. It is filed as cell-based. The method, then: Final concentration of test substances were in range from 64 to 0.125 μg/ml. MIC levels for all compound were determinated on panel of susceptible and resistant Gram positive bacterial strains (S. aureus, S. pneumoniae and S. pyogenes) and on Gram negative strains (E. coli, H. influenzae, E. faecalis, M. catarrhalis).

Turning to `CCC1OC(=O)C(C)C(OC2CC(C)(OC)C(O)C(C)O2)C(C)C(OC2OC(C)CC(N(C)C)C2O)C(C)(O)CC(C)CN(C(=O)Nc2ccc(S(N)(=O)=O)cc2)C(C)C(O)C1(C)O` (centres unmarked) [Example 3, 9-Deoxo-9-dihydro-9a-N-{[4-(aminosulfonyl)phenyl]carbamoyl}-9a-aza-9a-homoerithromycin A], the MIC (in general, the smallest concentration in the dilution series that meets the test's criterion for growth inhibition) was determined as 2 µg/mL (≈ 2.14 µM).

`CCC1OC(=O)C(C)C(OC2CC(C)(OC)C(O)C(C)O2)C(C)C(OC2OC(C)CC(N(C)C)C2O)C(C)(O)CC(C)CN(C(=O)Nc2ccc(S(=O)(=O)Nc3ccccc3)cc2)C(C)C(O)C1(C)O` (centres unmarked) [Example 4, 9-Deoxo-9-dihydro-9a-N-{N′-[4-(phenylaminosulfonyl)phenyl]carbamoyl}-9a-aza-9a-homoerithromycin A] displayed an MIC of 2 µg/mL (≈ 1.98 µM).
